# Assays:
# Type in all cases: cell-based
# [1] = tested on: Enterococcus faecalis (EFA); assay: MIC, two-fold agar dilution (CLSI), clinical isolates
# Procedure, shortened: (§1)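 MIC values come from two-fold agar dilution run per CLSI antimicrobial susceptibility testing procedure.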
# [2] = tested on: Enterococcus faecium (EFM); assay: as above
# Procedure, shortened: as §1
# [3] = tested on: Escherichia coli (including ESBLs, non-ESBLs); assay: as above
# Procedure, shortened: as §1
# [4] = tested on: Moraxella catarrhalis (BCA); assay: as above
# Procedure, shortened: as §1
# [5] = tested on: Streptococcus pneoumoniae (SPN); assay: as above
# Procedure, shortened: as §1
# [6] = tested on: methicillin-resistant Staphylococcus aureus (MRSA); assay: as above
# Procedure, shortened: as §1
# [7] = tested on: methicillin-resistant Staphylococcus epidermidis (MRSE); assay: as above
# Procedure, shortened: as §1
# [8] = tested on: methicillin-sensitive Staphylococcus aureus (MSSA); assay: as above
# Procedure, shortened: as §1
# [9] = tested on: methicillin-sensitive Staphylococcus epidermidis (MSSE); assay: as above
# Procedure, shortened: as §1
# [10] = tested on: HCT-116 colorectal cancer cell line; assay: CCK-8 proliferation inhibition; settings: concentration of 30 μM, 72 hours, CCK-8
# Procedure, shortened: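 HCT-116 cells, seeded at 2000 cells/well in McCoy's 5A with 10% newborn bovine serum, were cultured overnight at 37° C., 5% CO2, then exposed to compound dilutions in medium for 72 hours. Viability was read with 1:10 diluted CCK-8; controls received 1‰ DMSO.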
# [11] = tested on: A549 lung cancer cell line; assay: CCK-8 proliferation inhibition; settings: Homo sapiens, A549, 72 h, concentration of 30 μM
# Procedure, shortened: (§2)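 Plating at 2000 cells/well, then incubation overnight at 37° C. Next, a range of compound concentrations for 72 hours (control 1‰ DMSO). Finally, medium decanted and CCK-8 diluted 1:10 added.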
# [12] = tested on: BEL-7402 liver cancer cell line; assay: CCK-8 proliferation inhibition; settings: concentration of 30 μM
# Procedure, shortened: as §2
# [13] = tested on: MGC-803 gastric cancer cell line; assay: CCK-8 proliferation inhibition; settings: concentration of 30 μM
# Procedure, shortened: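 Cells were seeded at 2000 cells/well and cultured overnight at 37° C, 5% CO2, then exposed for 72 hours to compounds diluted from DMSO stocks. Controls received 1‰ DMSO. CCK-8 (1:10 diluted) replaced the medium. MGC-803 and Jurkat were grown in 1640, PC3 in F12, and MCF-7 in DMEM high glucose, each with 10% newborn bovine serum.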
# the test strains = assay: MIC against the test strains (strain not given); settings: read-out: MIC (azole amide bioisosteres)
# From the text: 1. The invention adopts the two-fold agar dilution method recommended by the operating procedure of antimicrobial susceptibility testing set by American Clinical and Laboratory Standards Institute (CLSI) to determine the Minimum Inhibitory Concentration (MIC) of the test samples against the tested strains.
smiles,measurement,setting,value
"O=C(C[C@@H](CC1CCCC1)C(=O)N1CC2(CC2)C[C@H]1c1nc2ccccc2[nH]1)NO [Example 75, (R)-4-((S)-6-(1H-benzimidazol-2-yl)-5-azaspiro[2.4]heptane-5-yl)-3-(cyclopentylmethyl)-N-hydroxy-4-oxobutanamide]",Anti-bacterial activity (MIC),[1]; strain EFA 15-1,> 32 µg/mL
same,Anti-bacterial activity (MIC),[1]; strain EFA 15-2,> 32 µg/mL
same,Anti-bacterial activity (MIC),[1]; strain EFA 15-3,> 32 µg/mL
same,Anti-bacterial activity (MIC),[1]; strain EFA 15-4,> 32 µg/mL
same,Anti-bacterial activity (MIC),[1]; strain EFA 15-5,> 32 µg/mL
same,Anti-bacterial activity (MIC),[1]; strain EFA 15-6,> 32 µg/mL
same,Anti-bacterial activity (MIC),[1]; strain EFA 15-9,> 32 µg/mL
same,Anti-bacterial activity (MIC),[2]; strain EFM 15-1,> 32 µg/mL
same,Anti-bacterial activity (MIC),[2]; strain EFM 15-2,> 32 µg/mL
same,Anti-bacterial activity (MIC),[2]; strain EFM 15-3,> 32 µg/mL
same,Anti-bacterial activity (MIC),[2]; strain EFM 15-4,2 µg/mL
same,Anti-bacterial activity (MIC),[2]; strain EFM 15-5,2 µg/mL
same,Anti-bacterial activity (MIC),[2]; strain EFM 15-6,2 µg/mL
same,"Anti-bacterial activity (MIC), strain ECO+ 15-1",[3]; clinical isolate ECO+ 15-1,16 µg/mL
same,"Anti-bacterial activity (MIC), strain ECO+ 15-2",[3]; clinical isolate ECO+ 15-2,32 µg/mL
same,"Anti-bacterial activity (MIC), strain ECO+ 15-3",[3]; clinical isolate ECO+ 15-3,32 µg/mL
same,"Anti-bacterial activity (MIC), strain ECO+ 15-4",[3]; clinical isolate ECO+ 15-4,16 µg/mL
same,"Anti-bacterial activity (MIC), strain ECO− 15-1",[3]; clinical isolate ECO− 15-1,16 µg/mL
same,"Anti-bacterial activity (MIC), strain ECO− 15-2",[3]; clinical isolate ECO− 15-2,32 µg/mL
same,"Anti-bacterial activity (MIC), strain ECO− 15-3",[3]; clinical isolate ECO− 15-3,32 µg/mL
same,"Anti-bacterial activity (MIC), strain ECO− 15-4",[3]; clinical isolate ECO− 15-4,32 µg/mL
same,Anti-bacterial activity (MIC),[4]; strain BCA 14-1,4 µg/mL
same,Anti-bacterial activity (MIC),[4]; strain BCA 14-4,8 µg/mL
same,Anti-bacterial activity (MIC),[4]; strain BCA 14-5,2 µg/mL
same,Anti-bacterial activity (MIC),[4]; strain BCA 14-6,8 µg/mL
same,Anti-bacterial activity (MIC),[4]; strain BCA 14-7,4 µg/mL
same,Anti-bacterial activity (MIC),[4]; strain BCA 14-8,4 µg/mL
same,Anti-bacterial activity (MIC),[4]; strain BCA 14-10,2 µg/mL
same,Anti-bacterial activity (MIC),[5]; strain SPN 16-2,1 µg/mL
same,Anti-bacterial activity (MIC),[5]; strain SPN 16-4,0.5 µg/mL
same,"Anti-bacterial activity (MIC), strain MRSA 15-1",[6]; clinical isolate MRSA 15-1,1 µg/mL
same,"Anti-bacterial activity (MIC), strain MRSA 15-2",[6]; clinical isolate MRSA 15-2,2 µg/mL
same,"Anti-bacterial activity (MIC), strain MRSA 15-3",[6]; clinical isolate MRSA 15-3,1 µg/mL
same,"Anti-bacterial activity (MIC), strain MRSA 15-4",[6]; clinical isolate MRSA 15-4,1 µg/mL
same,"Anti-bacterial activity (MIC), strain MRSE 15-1",[7]; clinical isolate MRSE 15-1,1 µg/mL
same,"Anti-bacterial activity (MIC), strain MRSE 15-2",[7]; clinical isolate MRSE 15-2,2 µg/mL
same,"Anti-bacterial activity (MIC), strain MRSE 15-3",[7]; clinical isolate MRSE 15-3,4 µg/mL
same,"Anti-bacterial activity (MIC), strain MRSE 15-7",[7]; clinical isolate MRSE 15-7,4 µg/mL
same,"Anti-bacterial activity (MIC), strain MSSA 15-3",[8]; clinical isolate MSSA 15-3,2 µg/mL
same,"Anti-bacterial activity (MIC), strain MSSA 15-4",[8]; clinical isolate MSSA 15-4,0.5 µg/mL
same,"Anti-bacterial activity (MIC), strain MSSA 15-5",[8]; clinical isolate MSSA 15-5,0.5 µg/mL
same,"Anti-bacterial activity (MIC), strain MSSA 15-6",[8]; clinical isolate MSSA 15-6,16 µg/mL
same,"Anti-bacterial activity (MIC), strain MSSE 15-3",[9]; clinical isolate MSSE 15-3,1 µg/mL
same,"Anti-bacterial activity (MIC), strain MSSE 15-4",[9]; clinical isolate MSSE 15-4,1 µg/mL
same,"Anti-bacterial activity (MIC), strain MSSE 15-5",[9]; clinical isolate MSSE 15-5,1 µg/mL
same,"Anti-bacterial activity (MIC), strain MSSE 15-6",[9]; clinical isolate MSSE 15-6,0.5 µg/mL
same,inhibition at 30 µM,"[10]; Homo sapiens, HCT-116, 72 h, read-out: HCT116 inhibition rate/%",> 50%
same,HCT116 inhibition rate/%,[10]; 30 µM,59%
same,inhibition at 30 µM,[11],45%
same,inhibition at 30 µM,"[12]; Homo sapiens, Bel-7402, 72 h",> 50%
same,"Inhibition of proliferation, Liver cancer BEL-7402","[12]; 72 hours, 30 µM",70%
same,inhibition at 30 µM,"[13]; Homo sapiens, MGC-803, 72 h",> 50%
same,"Inhibition of proliferation, Gastric cancer MGC-803","[13]; 72 hours, 30 µM",51%
same,MIC,the test strains,0.5 to 2 µg/mL
